Experiments:
[1] = system: Transkriptionsfaktors NF-kB; assay: NF-kB transcription factor activity in polyp material; format: cell-based, Mensch; conditions: in Polyposis nasi et sinuum; TNF-alpha as positive control
Description: Da auch für Polyposis nasi et sinuum postuliert wird, dass Entzündungsparameter einen entscheidenden Einfluss auf die Progression dieser Erkrankung haben, untersuchte die Anmelderin den Einfluss von Cineol auf die Aktivität des Transkriptionsfaktors Nuclear Factor kappa B (NF-kB) und auf die Aktivität eines breiten Spektrums verschiedener Phosphokinasen, um so die molekularen Angriffspunkte von Cineol in verschiedenen Biosynthesewegen der Zelle hinsichtlich des Polyposis nasi et sinuum-"Mikromilieus" zu identifizieren.
Bei den Messergebnissen wurde TNF-alpha (tumor necrosis factor-alpha) als etablierter Stimulus der NF-kB Aktivität und somit als interne Positivkontrolle verwendet.

[2] = system: GSK-3-alpha/beta; assay: Western blot of phospho-GSK-3 (Ser-9/-21) in nasal polyp samples; format: cell-based, Mensch; conditions: 100 µM, 24 h (Figur 4A)
Procedure: Lysate von Geweben wurden durch Erhitzen über einen Zeitraum von 5 Minuten in einfachem SDS-Probenpuffer (Carl Roth GmbH, Karlsruhe, Deutschland) denaturiert. Die Proteinkonzentrationen wurden mittels des Bradford-Tests bestimmt und jeweils 30 µg Gesamtprotein wurden zur SDS-Polyacrylamid-Gel Elektrophorese eingesetzt (Mini-Protean TGX®, Any kD, BioRad, Hercules, CA, USA) und anschließend auf Nitrozellulosemembranen übertragen. Die Übertragung der Proteine wurde mittels Ponceau-Färbung kontrolliert. […]
Um die Beladungsmenge jeder Spur zu bestimmen, wurden die Nitrozellulosemembranen über Nacht bei 4 °C mit einem primären Antikörper der GAPDH (Cell Signaling Technology Inc., Massachusetts, Katalognummer: 14C10) in einer Verdünnung von 1 : 1.000 inkubiert. […] Die Pixeldichten wurden quantifiziert und mittels Fusion FX7® unter Einsatz von Bio-1D Software® dokumentiert. […]

[3] = system: Fibroblastenzelllinie; assay: MTT assay, vitality and proliferation of a fibroblast cell line; format: cell-based; conditions: 1 mM bis 10 mM, 250 Stunden
Procedure: Es wurden weiterführende Untersuchungen durchgeführt zur Analyse des Einflusses von Cineol auf die Vitalität und Proliferation verschiedener permanenter Zelllinien. Hierzu wurden einerseits die zwei HNSCC-Zelllinien und des Weiteren eine Fibroblastenzelllinie verwendet. Diese wurden über einen Zeitraum von 250 Stunden mit verschiedenen Cineol-Konzentrationen kultiviert (1 mM bis 10 mM) und die Vitalität der Zellen wurde jeweils mittels eines MTT-Assays untersucht.

[4] = system: kultivierte Zellen aus der Nasenschleimhaut; assay: Proliferation of cultured nasal mucosa (epithelial) cells; format: cell-based, Mensch; conditions: treatment with 1,8-Cineol (Figur 2B)
Description: Material und Methoden: Die Anmelderin hat Gewebeproben aus Nasenpolypen und unteren Nasenmuscheln von Patienten mit CRSwNP (chronischer Rhinosinusitis mit Nasenpolypen) und aus unteren Nasenmuscheln von Probanden ohne chronische Sinusitis (gesunde Schleimhaut) auf Basis von immunohistochemischen Methoden und Immunoblot-Verfahren untersucht. Die zelluläre Proliferation und Migration wurden unter Einsatz des xCELLigence Real Time Cell Analyzer untersucht.
Die Zellproliferation wurde mittels eines quantitativen kolorimetrischen 3-(4,5-Dimethylthiazol 2-yl)-2,5-diphenyltetrazoliumbromid-basierten (MTT) Zelltests bestimmt. Dieser Test bestimmt die Anzahl an lebensfähigen Zellen auf Basis der mitochondrialen Umwandlung von MTT.
Die Proliferation wurde mittels eines MTT-Tests von Sigma-Aldrich ("In Vitro Toxicology Assay Kit") entsprechend den Instruktionen des Herstellers ermittelt.
Im Vergleich zur gesunden Nasenschleimhaut weisen Nasenpolypen eine andere Morphologie auf, was anhand von immunohistochemischen Färbungen mit Hämatoxylin-Eosin (HE) an gefrorenen Gewebeschnitten gezeigt werden konnte (Figur 1). Mit dieser Färbemethode werden basophile Strukturen mit Blau-Lila und eosinophile Strukturen mit hellem Pink angefärbt, wohingegen hydrophobe Strukturen, wie die Membranen des Golgi-Apparats, ungefärbt bzw. klar bleiben. […]

CC12CCC(CC1)C(C)(C)O2 [1,8-Cineol, 1,3,3-Trimethyl-2-oxabicyclo[2.2.2]octan]
Aktivität des Transkriptionsfaktors NF-kB [1]: keinen inhibierenden Einfluss hierauf hat, sondern vielmehr leicht aktivierend | Phosphorylierung von GSK-3-alpha/beta an Serin-9/-21 [2]: verringerten Phosphorylierung | Progression und Vitalität von Fibroblasten [3]: inhibierender Einfluss | Proliferation kultivierter Zellen aus der Nasenschleimhaut [4]: nicht beeinflusst

From patent publication EP3325012B1, “CINEOLE-CONTAINING COMPOSITION FOR TREATING NOSE POLYPS” (Maria Clementine Martin Klosterfrau Vertriebsgesellschaft …, priority 2015, dated 2017)
